Test results as given in US9347942B2, “Ultrasensitive cell based sensors and uses thereof” (CANVAX BIOTECH SL, priority 2010, dated 2016).

Assays:
Format in all cases: cell-based
CHRM2 [1] = target: T1, CHRM2 (Homo sapiens, UniProt P08172); test: Agonist-induced exocytosis of granzyme B, sandwich ELISA (Example 9); conditions: agonist 10 uM, 60 minutes
T1 construct: the entire human GPCR; mouse immunoglobulin kappa signal peptide (N); expressed in transfected cells
T1 sequence (P08172 2-466): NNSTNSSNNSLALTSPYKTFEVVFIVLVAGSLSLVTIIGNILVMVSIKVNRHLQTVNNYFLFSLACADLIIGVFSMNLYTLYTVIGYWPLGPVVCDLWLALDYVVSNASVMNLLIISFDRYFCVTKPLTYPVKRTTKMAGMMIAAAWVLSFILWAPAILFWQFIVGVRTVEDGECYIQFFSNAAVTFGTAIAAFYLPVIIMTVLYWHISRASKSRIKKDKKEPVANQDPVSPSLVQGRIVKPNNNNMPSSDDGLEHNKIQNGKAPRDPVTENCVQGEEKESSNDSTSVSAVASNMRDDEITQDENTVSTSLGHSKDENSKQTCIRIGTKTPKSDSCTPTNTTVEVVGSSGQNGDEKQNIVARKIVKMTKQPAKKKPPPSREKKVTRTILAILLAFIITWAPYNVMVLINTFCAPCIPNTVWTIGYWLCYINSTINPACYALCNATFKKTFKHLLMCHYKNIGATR
Description: Human granzyme B was selected as reporter, chimeric promoter of hCMV-MoLV5′LTR as promoter for reporter expression, RBL-2H3 as hemopoyetic cells with professional regulated exocytosis and several GPCRs as exocytosis modulators under the control of Moloney Leukaemia virus 5′-LTR (MoMLV5′LTR, SEQ ID NO:3) as promoter for expression of exocytosis modulators. […] Vectors for expression of granzyme B had the chimeric promoter of hCMV-MoLV5′LTR-GranzymeB-IRES-NGFR with hygromycin resistance for stable transfections. Vectors for GPCR were electroporated first, cells were selected with neomycin at 500 ug/mL for about two weeks and cells were analysed by flow cytometry (Guava Technologies, USA) with anti-cmyc tag antibody (anti-cmyc-FITC, clone 9E10, Sigma-Aldrich, USA) for surface expression. Positive cells were separated by magnetic separation using anti-cmyc monoclonal antibody conjugated to biotin (Miltenyi Biotec, Germany) and streptavidin-MACS (Miltenyi Biotec, Germany). After growing positive fraction of cells was again analysed by flow cytometry with the anti-cmyc tag antibody. Positive cells were individually electroporated with the vector for expression human granzyme B using a microporator (Digital Bio Technology, South Korea) and after 48 hours hygromycin at 1500 ug/mL and neomycin at 500 ug/mL were added to culture for selection. After selection for about 2 weeks cells were analysed by flow cytometry (Guava Technologies, USA) with an antibody against NGFR coupled to FITC. Positive population where magnetically separated by MACS using anti-NGFR-MACS sup.R (Miltenyi Biotec, Germany). Sorted populations were again analysed again by flow cytometry to check both the expression of the GPCR with the anti-cmyc tag antibody and with anti-NGFR antibody to check granzyme B expression. […] GPCRs included were: SSTR2 and CHRM2 as alpha-i coupled GPCRs; AGTR1 and bradykinin type B1 receptor (BDKRB1) as alpha-q coupled GPCRs and AVPR2 as alpha-s coupled GPCR. […] Cells were seeded the night before experiment at 100.000 cells per well of a 96-well microplate in 100 uL of complete cell culture medium. Next day cells were washed with HBSS buffer and incubated with the ligand (agonist) at 10 uM of each GPCR in 30 uL of HBSS buffer at 37 Celsius degrees for 60 minutes and after centrifugation at 400 g for 5 minutes supernatants were analysed for human granzyme B protein by a sandwich ELISA specific for human granzyme B (Ucytech, Netherlands).

CHRM2 [2] = target: T1, CHRM2; test: Multiplex assay, Sensor B channel (CHRM2 and granzyme B) (Example 14); conditions: granzyme B substrate 1 uM
Description: The principle of multiplex reactions is illustrated in FIG. 5. RBL2H3 cells were stably transfected with a pair of a GPCR as exocytosis modulator and a granzyme as a granule stored reporter as described in example 9. Combinations included were: hIL8 receptor (hIL8RA) and human granzyme A (Sensor A) and CHRM2 and granzyme B expressing cells of example #12 (Sensor B). Human IL8 was used as agonist of hll_8R while carbachol was used as CHRM2 agonist. […] As both substrates uses the same pair of fluorophore (FAM) and quencher (TAMRA) only one substrate could be added to reaction vessel for specific detection at 535 nm after excitation at 485 nm. […] Sensors, agonists and substrates were mixed in a total volume of 20 uL of HBSS in a black walled 384 well microplate and the microplate was incubated at 37 Celsius degrees in a BMG-Labtech microplate fluorimeter and read at 0, 15, 30, 45 and 60 minutes.

CHRM2 [3] = target: T1, CHRM2; test: Exocytosis time optimisation, granzyme B FRET readout (Example 12); conditions: agonist 10 uM
Description: An experiment was designed to optimize assay conditions such as: exocytosis time, number of steps needed for assay and uses of cells in suspension. Cells developed in example #9 expressing both a GPCR and human granzyme B were used in this example for optimization of exocytosis time. GPCRs included were CHRM2 (an alpha-i coupled GPCR) and bradykinin type B1 receptor (an alpha-q coupled GPCR). Carbachol and kallinin from Sigma-Aldrich (USA) were used as ligands for CHRM2 and bradykinin type B1 receptor, respectively and used at 10 uM final concentration in HBSS buffer. Cells were seeded the night before experiment at 20.000 cells per well of a 96-well microplate in 100 uL of complete cell culture medium. Next day cells were washed with HBSS buffer and incubated with the ligand (agonist) at 10 uM of each GPCR in 30 uL of HBSS buffer at 37 Celsius degrees for 5, 15, 30 or 60 minutes and after centrifugation at 400 g for 5 minutes supernatants were analysed for human granzyme B activity using FAM-[…]-TAMRA at 1 uM final concentration as the human granzyme B substrate. Released FAM was measured by excitation at 485 nm and emission at 535 nm in a BMG Labtech microplate fluorimeter in 96 well microplates. Microplates were incubated at 37 Celsius degrees on the reader and were kinetically read at 0, 15, 30, 45 and 60 minutes. Control wells with substrate only in HBSS buffer were included to subtract autofluorescence of substrates to both cells treated with ligands and to cells treated with HBSS buffer only. […] The signal to background is lower at longer exocytosis times due to the higher increase in basal release than the increase in specific signal after the first 5 to 15 minutes. Thus, any exocytosis time from probably less than 5 minutes to at least 60 minutes may be used for the methods of the present invention but longer exocytosis times produce a sensor with a lower signal to background, exocytosis is nearly complete at 5 minutes and signal to background is good for a robust sensor.

C[N+](C)(C)CCOC(N)=O [Carbachol, carbachol]
Absorbance at maximal dilution of ELISA tested (CHRM2 [1]; 100.000 cells, dilution 2250, after subtraction of 0.2 blank): 0.6 | Sensitivity (minimal amount of cells needed) (CHRM2 [1]; granzyme B ELISA): <150 cells | Signal to background at 30 min (CHRM2 [2]; Condition 7: 5000 cells Sensor B, carbachol 10 uM): 20 | Signal to background at 30 min (CHRM2 [2]; Condition 10: Sensor A 12500 + Sensor B 5000 cells, IL8 10 uM + carbachol 10 uM): 20 | exocytosis, % of maximal (CHRM2 [3]; 5 minutes, 20.000 cells): > 90% | signal to background (S/B) (CHRM2 [3]; medium taken at 5 to 15 minutes): 20-22 | signal to background (S/B) (CHRM2 [3]; medium taken at 30 minutes): 15-17 | signal to background (S/B) (CHRM2 [3]; medium taken at 60 minutes): 8-10
